The values below come from PubChem BioAssay AID248 (DTP/NCI, 2004).

Several values for one entry are separate records, joined by “and”; a condition that tells them apart may be missing. Identical values can stand only once. Inconclusive results and toxic doses are left out.

The test has as its system L1210 leukemia ip in BDF1 mice, survival T/C. Nature of the test: NCI In Vivo Anticancer Drug Screen. Data for tumor model L1210 Leukemia (intraperitoneal) in B6D2F1 (BDF1) mice. The note with it: endpoint: mean survival time, higher = longer survival. A digest of the protocol: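 Each compound was tested against a transplantable tumor grown in mice. The endpoint was survival, with treated animals benchmarked against vehicle controls as a simple ratio.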

Setting [1] is: dose: 100.0 mg/kg/injection, schedule: Q04DX002 (ip), vehicle: Klucel (hydroxypropylcellulose) (HPC).
Where [2] appears, read: dose: 200.0 mg/kg/injection, schedule: Q04DX002 (ip), vehicle: Klucel (hydroxypropylcellulose) (HPC).
[3] abbreviates: dose: 400.0 mg/kg/injection, schedule: Q04DX002 (ip), vehicle: Klucel (hydroxypropylcellulose) (HPC).
Setting [4] is: dose: 100.0 mg/kg/injection, schedule: Q04DX003 (ip), vehicle: Klucel (hydroxypropylcellulose) (HPC).
[5] abbreviates: dose: 200.0 mg/kg/injection, schedule: Q04DX003 (ip), vehicle: Klucel (hydroxypropylcellulose) (HPC).
[6] abbreviates: dose: 400.0 mg/kg/injection, schedule: Q04DX003 (ip), vehicle: Klucel (hydroxypropylcellulose) (HPC).
[7] abbreviates: dose: 100.0 mg/kg/injection, schedule: Q01DX009 (ip), vehicle: saline with Tween-80.
[8] abbreviates: dose: 200.0 mg/kg/injection, schedule: Q01DX009 (ip), vehicle: saline with Tween-80.
[9] abbreviates: dose: 100.0 mg/kg/injection, schedule: Q01DX001 (ip), vehicle: saline.
[10] abbreviates: dose: 200.0 mg/kg/injection, schedule: Q01DX001 (ip), vehicle: saline.
Where [11] appears, read: dose: 400.0 mg/kg/injection, schedule: Q01DX001 (ip), vehicle: saline.
Where [12] appears, read: dose: 100.0 mg/kg/injection, schedule: Q01DX009 (ip), vehicle: Klucel (hydroxypropylcellulose) (HPC).
The mark [13] stands for this setting: dose: 200.0 mg/kg/injection, schedule: Q01DX009 (ip), vehicle: Klucel (hydroxypropylcellulose) (HPC).
[14] abbreviates: dose: 100.0 mg/kg/injection, schedule: Q01DX001 (ip), vehicle: carboxymethylcellulose (CMC).
The mark [15] stands for this setting: dose: 200.0 mg/kg/injection, schedule: Q01DX001 (ip), vehicle: carboxymethylcellulose (CMC).
Setting [16] is: dose: 400.0 mg/kg/injection, schedule: Q01DX001 (ip), vehicle: carboxymethylcellulose (CMC).

As for `Cc1ccc(CNC(=O)NC(C)(C)C)cc1C`, the T/C is, setting by setting: under setting [1], 103 % of control; under setting [2], 111 % of control; under setting [3], 100 % of control.
Turning to `O=C(O)COc1ccccc1Cl`, the T/C under setting [4] was 105 % of control, the T/C under setting [5] was 104 % of control and the T/C under setting [6] is 107 % of control.
Turning to `COc1ccc(OCCOC(=O)Nc2cccc(C(F)(F)F)c2)cc1`, the T/C under setting [7] was 109 % of control; the T/C under setting [8] was 96 % of control; the T/C (dose: 400.0 mg/kg/injection, schedule: Q01DX009 (ip), vehicle: saline with Tween-80) is 91 % of control.
Take `CCCNC(=O)Nc1ccc(OCC)cc1`: the T/C runs as follows: under setting [1], 105 % of control; under setting [2], 115 % of control; under setting [3], 105 % of control.
For `O=C(COc1ccc(Cl)c(Cl)c1)NCCc1ccncc1`, the T/C runs as follows: (dose: 50.0 mg/kg/injection, schedule: Q04DX002 (ip), vehicle: Klucel (hydroxypropylcellulose) (HPC)) 103 % of control; under setting [1], 118 % of control; under setting [2], 111 % of control.
In the case of `O=C(O)c1cccc2ccc3ccccc3c12`, the T/C runs as follows: under setting [9], 121 % of control; (dose: 100.0 mg/kg/injection, schedule: Q04DX003 (ip), vehicle: saline) 102 % of control; under setting [10], 101 % of control; (dose: 200.0 mg/kg/injection, schedule: Q04DX003 (ip), vehicle: saline) 96 % of control; under setting [11], 97 % of control; (dose: 400.0 mg/kg/injection, schedule: Q04DX003 (ip), vehicle: saline) 96 % of control.
On to `CC(=O)Oc1ccc(C2(c3ccc(OC(C)=O)cc3)C(=O)Nc3ccccc32)cc1`, for which the T/C is, setting by setting: under setting [9], 91 % of control; under setting [12], 103 % of control; under setting [10], 92 % of control; under setting [13], 97 % of control; under setting [11], 87 % of control; (dose: 400.0 mg/kg/injection, schedule: Q01DX009 (ip), vehicle: Klucel (hydroxypropylcellulose) (HPC)) 104 % of control.
Regarding `C/C=C/C=C/CC`, the T/C is, setting by setting: under setting [9], 109 % of control; under setting [10], 102 % of control; under setting [11], 109 % of control.
On to `O=C1CSC(=NCCN=C2NC(=O)CS2)N1`, for which the T/C was 104 % of control under setting [9], 111 % of control under setting [10] and 102 % of control under setting [11].
Consider `O=c1cc(O)ccn1CCc1cccs1`, for which the T/C is 94 % of control under setting [7]; 91 % of control (dose: 100.0 mg/kg/injection, schedule: Q04DX003 (ip), vehicle: saline with Tween-80); 96 % of control under setting [8]; 98 % of control (dose: 200.0 mg/kg/injection, schedule: Q04DX003 (ip), vehicle: saline with Tween-80); 90 % of control (dose: 400.0 mg/kg/injection, schedule: Q04DX003 (ip), vehicle: saline with Tween-80).
On to `O=C1c2ccccc2C(=O)N1C1CCC(CO)C1` (centres undefined), for which the T/C by setting is: under setting [14], 106 % of control; under setting [15], 102 % of control; under setting [16], 91 % of control.
On to `CC(CCc1cccc2ccccc12)C(=O)O` (centres undefined), for which the T/C is 103 % of control under setting [4], 100 % of control under setting [5] and 105 % of control under setting [6].
Turning to `CCN(CC)c1ccc(N=Nc2ccc(S(=O)(=O)O)cc2)cc1`, the T/C runs as follows: (dose: 25.0 mg/kg/injection, schedule: Q01DX009 (ip), vehicle: saline) 97 % of control; (dose: 50.0 mg/kg/injection, schedule: Q01DX009 (ip), vehicle: saline) 91 % of control; under setting [9], 88 % of control; (dose: 100.0 mg/kg/injection, schedule: Q01DX009 (ip), vehicle: saline) 100 % of control.
Consider `CN(C)S(=O)(=O)c1ccc(N=NN2CCOCC2)cc1`, for which the T/C reads like this: (dose: 100.0 mg/kg/injection, schedule: Q04DX002 (ip), vehicle: saline with Tween-80) 115 % of control; (dose: 200.0 mg/kg/injection, schedule: Q04DX002 (ip), vehicle: saline with Tween-80) 97 % of control; (dose: 400.0 mg/kg/injection, schedule: Q04DX002 (ip), vehicle: saline with Tween-80) 108 % of control.
Regarding `O=NN(CCCl)C(=O)Nc1ccc(I)cc1`, the T/C is 121 % of control (dose: 8.0 mg/kg/injection, schedule: Q01DX009 (ip), vehicle: carboxymethylcellulose (CMC)); 112 % of control (dose: 8.4 mg/kg/injection, schedule: Q01DX009 (ip), vehicle: carboxymethylcellulose (CMC)); 112 % of control (dose: 12.0 mg/kg/injection, schedule: Q01DX009 (ip), vehicle: carboxymethylcellulose (CMC)); 117 % of control (dose: 17.0 mg/kg/injection, schedule: Q01DX001 (ip), vehicle: carboxymethylcellulose (CMC)); 119 % of control (dose: 17.7 mg/kg/injection, schedule: Q01DX001 (ip), vehicle: carboxymethylcellulose (CMC)); 122 % of control (dose: 26.6 mg/kg/injection, schedule: Q01DX001 (ip), vehicle: carboxymethylcellulose (CMC)). Further, the T/C by setting is: (dose: 29.0 mg/kg/injection, schedule: Q01DX009 (ip), vehicle: carboxymethylcellulose (CMC)) 150 % of control and 154 % of control; (dose: 44.0 mg/kg/injection, schedule: Q01DX009 (ip), vehicle: carboxymethylcellulose (CMC)) 124 % of control; (dose: 60.0 mg/kg/injection, schedule: Q01DX001 (ip), vehicle: carboxymethylcellulose (CMC)) 119 % of control; (dose: 66.0 mg/kg/injection, schedule: Q01DX009 (ip), vehicle: carboxymethylcellulose (CMC)) 121 % of control and 90 % of control; (dose: 89.0 mg/kg/injection, schedule: Q01DX001 (ip), vehicle: carboxymethylcellulose (CMC)) 153 % of control; (dose: 100.0 mg/kg/injection, schedule: Q01DX009 (ip), vehicle: carboxymethylcellulose (CMC)) 98 % of control. Further, the T/C under setting [15] is 186 % of control.
`ClCCCC#Cc1ccccc1`: the T/C is, setting by setting: (dose: 50.0 mg/kg/injection, schedule: Q01DX009 (ip), vehicle: Klucel (hydroxypropylcellulose) (HPC)) 101 % of control; (dose: 100.0 mg/kg/injection, schedule: Q01DX001 (ip), vehicle: Klucel (hydroxypropylcellulose) (HPC)) 90 % of control; under setting [12], 101 % of control; (dose: 200.0 mg/kg/injection, schedule: Q01DX001 (ip), vehicle: Klucel (hydroxypropylcellulose) (HPC)) 98 % of control; under setting [13], 110 % of control.
Regarding `CCCCN(C)C(=S)S[Te](SC(=S)N(C)CCCC)(SC(=S)N(C)CCCC)SC(=S)N(C)CCCC`, the T/C was 95 % of control under setting [9]; 90 % of control under setting [10]; 93 % of control under setting [11]; 106 % of control (dose: 800.0 mg/kg/injection, schedule: Q01DX001 (ip), vehicle: saline); 104 % of control (dose: 1600.0 mg/kg/injection, schedule: Q01DX001 (ip), vehicle: saline).
For the molecule `CC(C(O)c1ccc(Cl)cc1)C(O)(C(F)(F)F)C(F)(F)F` (centres undefined), the T/C (dose: 75.0 mg/kg/injection, schedule: Q01DX009 (ip), vehicle: saline with Tween-80) is 100 % of control; the T/C (dose: 150.0 mg/kg/injection, schedule: Q01DX009 (ip), vehicle: saline with Tween-80) is 110 % of control; the T/C (dose: 300.0 mg/kg/injection, schedule: Q01DX009 (ip), vehicle: saline with Tween-80) is 101 % of control.
Regarding `Cc1ccc(S(=O)(=O)N=S(C)C)cc1`, the T/C by setting is: (dose: 50.0 mg/kg/injection, schedule: Q01DX001 (ip), vehicle: carboxymethylcellulose (CMC)) 104 % of control; under setting [14], 104 % of control; under setting [15], 98 % of control; under setting [16], 93 % of control; (dose: 800.0 mg/kg/injection, schedule: Q01DX001 (ip), vehicle: carboxymethylcellulose (CMC)) 105 % of control; (dose: 1200.0 mg/kg/injection, schedule: Q01DX001 (ip), vehicle: carboxymethylcellulose (CMC)) 103 % of control. Besides, the T/C (dose: 1600.0 mg/kg/injection, schedule: Q01DX001 (ip), vehicle: carboxymethylcellulose (CMC)) was 109 % of control.
